Molecules are shown by their SMILES. Entries after “also recorded” stand apart in the source; their conditions may differ.

Consider one compound from US20220062165A1, “COMPOSITIONS AND METHODS FOR INTRANASAL DELIVERY OF PREGNENOLONE” (M et P Pharma AG, priority 2018, published 2022).

Parameters in all cases: species or system rat
Assay [1] deals with extracellular acetylcholine levels in the amygdala. The experiment in a line: In vivo microdialysis after intranasal administration in both nostrils, amygdala. The settings on record: 11.2 mg/mL, 5 μl each in both nostrils; n=4. On the procedure:
(§1) Acetylcholine concentration values are presented as % of baseline with six baseline samples taken as 100 (mean+SE). Pregnenolone was administrated intranasally at a volume of 5 μl each in both nostrils, at the 0 minute time point. Time is presented in the x-axis and mean and standard error of acetylcholine concentration (expressed as % of baseline) are presented in the y-axis. Filled black circles represent the vehicle, unfilled white circles represent the 5.6 mg/mL pregnenolone dose and the triangle represents the 11.2 mg/mL pregnenolone dose.
(§2) The semipermeable membrane allows molecules smaller than 6 KDa to pass through. The length of the active membrane is 2 mm for the frontal cortex and amygdala, and 4 mm for the hippocampus.
(§3) Microdialysis. Prior the microdialysis process, the animals were anesthetized with Urethane intraperitoneal injection. (1.25 gram/kilogram, Sigma Aldrich). To allow fluid supply (perfusion liquid) (Ringer's solution 0.2 milliliter every 20 minutes) without physical contact with the animal, a catheter was placed into the intraperitoneal cavity. The animal was placed in an acrylic box (45×25×22 centimeter), and the body temperature was monitored and held stable at 36.5±0.5 degrees Celsius by atemperature controller (CMA/150) and a heating pad. […]

The test system is the same in assay [2]. Kind of assay: In vivo microdialysis after lateralized intranasal administration (one nostril), amygdala. The settings on record: 5 μl of 11.2 mg/mL gel in one nostril, vehicle in the other; anesthetized rats; n=10. The text has this: Subjects. A total number of 10 adult male Wistar rats 3-4 months of age and weighting between 400 and 500 grams, at the time of surgery, were obtained from the local animal facility (Tierversuchsanlage, University of Dusseldorf, Germany). They were grouped 4 per cage (Makrolon cage, type IV, 60.0×20.0×38.0 centimeter), and separated into individual cases after the surgery. They were housed under a reversed light-dark cycle (light off from 7 after midnight (AM) to 7 post meridiem (PM)), with free access to food and water. […] After two weeks of adaptation, animals underwent microdialysis as described below. All experiments were carried out in accordance with the European Communities Council Directive (86/609/EEC) on animal welfare, and approved by the German Animal Protection Law Authorities—LANUV Nordrhein-Westfalen.
Surgery. Rats underwent implantation of microdialysis probes into specific brain areas. They were anesthetized with a mixture of ketamine hydrochloride (90.0 milligram/kilogram (mg/kg); Pharmacia & Upjohn) and xylazine hydrochloride (8.0 mg/kg; Bayer) and placed in a stereotaxic frame (David Kopf Instruments). […]
Microdialysis. […] The animal was placed in an acrylic box (45×25×22 centimeter), and the body temperature was monitored and held stable at 36.5±0.5 degrees Celsius by atemperature controller (CMA/150) and a heating pad. […]

The subject of assay [3] is extracellular acetylcholine levels in the frontal cortex. The experiment in a line: In vivo microdialysis after intranasal administration in both nostrils, frontal cortex. The settings on record: 5 μl each in both nostrils. On the procedure:
as §1, §2, §3

For assay [4], the system named is extracellular acetylcholine levels in the hippocampus. Kind of assay: In vivo microdialysis after intranasal administration in both nostrils, hippocampus. The settings on record: 5 μl each in both nostrils. On the procedure: as §1, §2, §3

Take `CC(=O)[C@H]1CC[C@H]2[C@@H]3CC=C4C[C@@H](O)CC[C@]4(C)[C@H]3CC[C@]12C` [pregnenolone]: the “effect on acetylcholine (ACh) release in the amygdala” value in assay [1] is “induced an increase in acetylcholine release in the amygdala”. Further, the “extracellular acetylcholine in the amygdala contralateral to the treated nostril” value in assay [2] is “not in the contralateral amygdala”. Besides, the “extracellular acetylcholine in the amygdala ipsilateral to the treated nostril” value in assay [2] is reported as “Higher increase in the ipsilateral amygdala of extracellular level of acetylcholine; also recorded: increases acetylcholine in the amygdala ipsilateral to this nostril”. The “effect on acetylcholine release in the frontal cortex” value in assay [3] (5.6 mg/mL, n=5) is “Neither pregnenolone (PREG) at dosage 5.6 mg/mL or 11.2 mg/mL had an effect”; in assay [3] (11.2 mg/mL, n=6), “Neither pregnenolone (PREG) at dosage 5.6 mg/mL or 11.2 mg/mL had an effect”. Also, the “effect on acetylcholine release in the hippocampus” value in assay [4] (5.6 mg/mL, n=7) was “had no effect”; in assay [4] (11.2 mg/mL, n=5), “had an effect on acetylcholine release in the hippocampus, but this effect was not significant”.
